Legend:
[1] = tested on: Alopecurus myosuroides (ALOMY); assay: Example B pre-emergence herbicidal activity, glasshouse pot test; type: in vivo; details: 312 h, first table (headed Post-Emergence, taken as pre-emergence), evaluated after 13 days, read-out: ALOMY activity (100=total damage to plant; 0=no damage to plant); for pest or weed control at 1000 g/ha: rate 1000 g/ha; for pest or weed control at 250 g/ha: rate 250 g/ha
Method: (§1) Seeds of a variety of test species are sown in standard soil in pots. After cultivation for one day (pre-emergence) or after 8 days cultivation (post-emergence) under controlled conditions in a glasshouse (at 24/16° C., day/night; 14 hours light; 65% humidity), the plants are sprayed with an aqueous spray solution derived from the formulation of the technical active ingredient in acetone/water (50:50) solution containing 0.5% Tween 20 (polyoxyethelyene sorbitan monolaurate, CAS RN 9005-64-5). The test plants are then grown in a glasshouse under controlled conditions in a glasshouse (at 24/16° C., day/night; 14 hours light; 65% humidity) and watered twice daily. After 13 days for pre and post-emergence, the test is evaluated (100=total damage to plant; 0=no damage to plant). Test Plants: Setaria faberi (SETFA), Alopecurus myosuroides (ALOMY), Echinochloa crus-galli (ECHCG), Avena fatua (AVEFA)

Avena fatua (AVEFA) [2] = assay: as above; type: in vivo; details: 312 h, first table (headed Post-Emergence, taken as pre-emergence), evaluated after 13 days, read-out: AVEFA activity (100=total damage to plant; 0=no damage to plant); for pest or weed control at 1000 g/ha: rate 1000 g/ha; for pest or weed control at 250 g/ha: rate 250 g/ha
Method: as §1

[3] = tested on: Echinochloa crus-galli (ECHCG); assay: as above; type: in vivo; details: 312 h, first table (headed Post-Emergence, taken as pre-emergence), evaluated after 13 days, read-out: ECHCG activity (100=total damage to plant; 0=no damage to plant); for pest or weed control at 1000 g/ha: rate 1000 g/ha; for pest or weed control at 250 g/ha: rate 250 g/ha
Method: as §1

Setaria faberi (SETFA) [4] = assay: as above; type: in vivo; details: 312 h, first table (headed Post-Emergence, taken as pre-emergence), evaluated after 13 days, read-out: SETFA activity (100=total damage to plant; 0=no damage to plant); for pest or weed control at 1000 g/ha: rate 1000 g/ha; for pest or weed control at 250 g/ha: rate 250 g/ha
Method: as §1

[5] = tested on: Alopecurus myosuroides (ALOMY); assay: Example B post-emergence herbicidal activity, glasshouse pot test; type: in vivo; details: 312 h, evaluated after 13 days, read-out: ALOMY post-emergence activity (100=total damage to plant; 0=no damage to plant); for pest or weed control at 1000 g/ha: rate 1000 g/ha; for pest or weed control at 250 g/ha: rate 250 g/ha
Method: as §1

Avena fatua (AVEFA) [6] = assay: as above; type: in vivo; details: 312 h, evaluated after 13 days, read-out: AVEFA post-emergence activity (100=total damage to plant; 0=no damage to plant); for pest or weed control at 1000 g/ha: rate 1000 g/ha; for pest or weed control at 250 g/ha: rate 250 g/ha
Method: as §1

[7] = tested on: Echinochloa crus-galli (ECHCG); assay: as above; type: in vivo; details: 312 h, evaluated after 13 days, read-out: ECHCG post-emergence activity (100=total damage to plant; 0=no damage to plant); for pest or weed control at 1000 g/ha: rate 1000 g/ha; for pest or weed control at 250 g/ha: rate 250 g/ha
Method: as §1

Setaria faberi (SETFA) [8] = assay: as above; type: in vivo; details: 312 h, evaluated after 13 days, read-out: SETFA post-emergence activity (100=total damage to plant; 0=no damage to plant); for pest or weed control at 1000 g/ha: rate 1000 g/ha; for pest or weed control at 250 g/ha: rate 250 g/ha
Method: as §1

CCOC(=O)OC1=C(c2c(C)cc(Br)cc2C)C(=O)NC12CCN(OC)CC2 [Compound P49]
pest or weed control at 1000 g/ha [1]: 80%
pest or weed control at 1000 g/ha (Avena fatua (AVEFA) [2]): 80%
pest or weed control at 1000 g/ha [3]: 70%
pest or weed control at 1000 g/ha (Setaria faberi (SETFA) [4]): 80%
pest or weed control at 1000 g/ha [5]: 90%
pest or weed control at 1000 g/ha (Avena fatua (AVEFA) [6]): 80%
pest or weed control at 1000 g/ha [7]: 80%
pest or weed control at 1000 g/ha (Setaria faberi (SETFA) [8]): 80%
melting point: 185 to 187 °C

CON1CCC2(CC1)NC(=O)C(c1c(C)cc(Br)cc1C)C2=O (stereo not drawn) [Compound T12]
pest or weed control at 1000 g/ha [1]: 70%
pest or weed control at 1000 g/ha (Avena fatua (AVEFA) [2]): 80%
pest or weed control at 1000 g/ha [3]: 20%
pest or weed control at 1000 g/ha (Setaria faberi (SETFA) [4]): 90%
pest or weed control at 1000 g/ha [5]: 80%
pest or weed control at 1000 g/ha (Avena fatua (AVEFA) [6]): 90%
pest or weed control at 1000 g/ha [7]: 80%
pest or weed control at 1000 g/ha (Setaria faberi (SETFA) [8]): 90%
melting point: 260 to 264 °C

CON1CCC2(CC1)NC(=O)C(c1c(C)cc(C)cc1C)C2=O (stereo not drawn) [Compound T4]
pest or weed control at 1000 g/ha [1]: 90%
pest or weed control at 1000 g/ha (Avena fatua (AVEFA) [2]): 100%
pest or weed control at 1000 g/ha [3]: 100%
pest or weed control at 1000 g/ha (Setaria faberi (SETFA) [4]): 90%
pest or weed control at 1000 g/ha [5]: 100%
pest or weed control at 1000 g/ha (Avena fatua (AVEFA) [6]): 90%
pest or weed control at 1000 g/ha [7]: 100%
pest or weed control at 1000 g/ha (Setaria faberi (SETFA) [8]): 100%

CON1CCC2(CC1)NC(=O)C(c1c(Cl)cccc1Cl)C2=O (stereo not drawn) [Compound T3]
pest or weed control at 1000 g/ha [1]: 40%
pest or weed control at 1000 g/ha (Avena fatua (AVEFA) [2]): 0%
pest or weed control at 1000 g/ha [3]: 0%
pest or weed control at 1000 g/ha (Setaria faberi (SETFA) [4]): 80%
pest or weed control at 1000 g/ha [5]: 60%
pest or weed control at 1000 g/ha (Avena fatua (AVEFA) [6]): 0%
pest or weed control at 1000 g/ha [7]: 0%
pest or weed control at 1000 g/ha (Setaria faberi (SETFA) [8]): 70%
melting point: 257 to 260 °C

CON1CCC2(CC1)NC(=O)C(c1ccc(Br)cc1C)=C2OC(=O)C(C)(C)C [Compound P69]
pest or weed control at 250 g/ha [1]: 40%
pest or weed control at 250 g/ha (Avena fatua (AVEFA) [2]): 30%
pest or weed control at 250 g/ha [3]: 90%
pest or weed control at 250 g/ha (Setaria faberi (SETFA) [4]): 100%
pest or weed control at 250 g/ha [5]: 90%
pest or weed control at 250 g/ha (Avena fatua (AVEFA) [6]): 60%
pest or weed control at 250 g/ha [7]: 90%
pest or weed control at 250 g/ha (Setaria faberi (SETFA) [8]): 90%
melting point: 239 to 240 °C

CCON1CCC2(CC1)NC(=O)C(c1c(C)cc(C)cc1C)C2=O (stereo not drawn) [Compound T5]
pest or weed control at 1000 g/ha [1]: 100%
pest or weed control at 1000 g/ha (Avena fatua (AVEFA) [2]): 90%
pest or weed control at 1000 g/ha [3]: 100%
pest or weed control at 1000 g/ha (Setaria faberi (SETFA) [4]): 90%
pest or weed control at 1000 g/ha [5]: 90%
pest or weed control at 1000 g/ha (Avena fatua (AVEFA) [6]): 60%
pest or weed control at 1000 g/ha [7]: 100%
pest or weed control at 1000 g/ha (Setaria faberi (SETFA) [8]): 90%

CCOC(=O)OC1=C(c2ccc(Br)cc2Cl)C(=O)NC12CCN(OC)CC2 [Compound P66]
pest or weed control at 250 g/ha [1]: 30%
pest or weed control at 250 g/ha (Avena fatua (AVEFA) [2]): 10%
pest or weed control at 250 g/ha [3]: 0%
pest or weed control at 250 g/ha (Setaria faberi (SETFA) [4]): 10%
pest or weed control at 250 g/ha [5]: 90%
pest or weed control at 250 g/ha (Avena fatua (AVEFA) [6]): 70%
pest or weed control at 250 g/ha [7]: 100%
pest or weed control at 250 g/ha (Setaria faberi (SETFA) [8]): 90%
melting point: 199 to 201 °C

COc1ccc(COC2=C(c3ccc(Cl)cc3Cl)C(=O)NC23CCN(OC)CC3)cc1 [Compound P32]
pest or weed control at 1000 g/ha [5]: 70%
pest or weed control at 1000 g/ha (Avena fatua (AVEFA) [6]): 60%
pest or weed control at 1000 g/ha [7]: 80%
pest or weed control at 1000 g/ha (Setaria faberi (SETFA) [8]): 90%
melting point: 111 to 113 °C

C=CCOC(=O)OC1=C(c2c(C)cc(Br)cc2C)C(=O)NC12CCN(OC)CC2 [Compound P48]
pest or weed control at 1000 g/ha [1]: 100%
pest or weed control at 1000 g/ha (Avena fatua (AVEFA) [2]): 80%
pest or weed control at 1000 g/ha [3]: 80%
pest or weed control at 1000 g/ha (Setaria faberi (SETFA) [4]): 90%
pest or weed control at 1000 g/ha [5]: 80%
pest or weed control at 1000 g/ha (Avena fatua (AVEFA) [6]): 10%
pest or weed control at 1000 g/ha [7]: 80%
pest or weed control at 1000 g/ha (Setaria faberi (SETFA) [8]): 80%
melting point: 207 to 211 °C
